Laboratory results published in PubChem BioAssay (NCI).
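The compound was tested at five concentrations on cells cultured in 96-well plates, with a 48-hour exposure period. GI50 marks 50% less growth. TGI: concentration producing complete growth inhibition.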

Key:
Assay in all cases: DTP human tumour cell line panel, 48 h
[1] = test system: HS 578T breast
[2] = test system: UO-31 renal
[3] = test system: HOP-62 NSCLC
[4] = test system: SK-OV-3 ovarian
[5] = test system: DU-145 prostate
[6] = test system: SF-268 CNS
[7] = test system: MOLT-4 leukemia
[8] = test system: SK-MEL-2 melanoma
[9] = test system: RPMI-8226 leukemia
[10] = test system: SNB-19 CNS
[11] = test system: LOX IMVI melanoma

## COc1cc(Nc2nc3cc(C(F)(F)F)ccc3n3cccc23)cc(OC)c1OC
[1]
  TGI: > 100 µM
[2]
  TGI: > 100 µM
[3]
  TGI: > 100 µM
[4]
  TGI: > 100 µM
[5]
  TGI: > 100 µM
[6]
  TGI: > 100 µM
[7]
  TGI: > 100 µM
[8]
  TGI: > 100 µM
[9]
  TGI: > 100 µM
[10]
  TGI: > 100 µM

## CC(=O)O[C@H]1CC[C@@]2(C)C(=CC[C@@H]3[C@@H]2CC[C@]2(C)c4nc(Cl)ccc4C[C@@H]32)C1
[2]
  TGI: > 100 µM
[3]
  TGI: > 100 µM
[4]
  TGI: > 100 µM
[5]
  TGI: > 100 µM
[6]
  TGI: > 100 µM
[7]
  TGI: > 100 µM
[11]
  TGI: > 100 µM
[10]
  TGI: > 100 µM

## COc1ccc(CNc2cc(=O)n(C)c(=O)[nH]2)cc1
[1]
  TGI: > 100 µM
[2]
  TGI: > 100 µM
[3]
  TGI: > 100 µM
[4]
  TGI: > 100 µM
[6]
  TGI: > 100 µM
[7]
  TGI: > 100 µM
[8]
  TGI: > 100 µM
[11]
  TGI: > 100 µM
[9]
  TGI: > 100 µM
[10]
  TGI: > 100 µM

## O=NN(CCF)C(=O)NC1CCSCC1
[2]
  TGI: > 100 µM
[3]
  TGI: > 100 µM
[4]
  TGI: > 100 µM
[6]
  TGI: > 100 µM
[7]
  TGI: > 100 µM
[8]
  TGI: > 100 µM
[11]
  TGI: > 100 µM
[9]
  TGI: > 100 µM
[10]
  TGI: > 100 µM

## NNc1nnc(-c2nnc(NN)o2)o1
[1]
  TGI: > 10 µM
[2]
  TGI: > 10 µM
[3]
  TGI: > 10 µM
[5]
  TGI: > 10 µM
[6]
  TGI: > 10 µM
[7]
  TGI: > 10 µM
[9]
  TGI: > 10 µM
[10]
  TGI: > 10 µM

## Cc1cnc2c(c1C)C(=O)c1ccccc1C2=O
[1]
  TGI: > 100 µM
[2]
  TGI: > 100 µM
[3]
  TGI: > 100 µM
[4]
  TGI: > 100 µM
[5]
  TGI: > 100 µM
[6]
  TGI: > 100 µM
[7]
  TGI: > 100 µM
[8]
  TGI: > 100 µM
[9]
  TGI: > 100 µM
[10]
  TGI: > 100 µM

## O=C(c1ccccc1)c1c(CC(O)c2ccncc2)n(C(=O)c2ccccc2)c2ccccc12 (configuration not stated)
[2]
  TGI: 31.7 µM
[3]
  TGI: 31.6 µM
[6]
  TGI: 49.3 µM
[7]
  TGI: 42.1 µM
[8]
  TGI: 31 µM
[9]
  TGI: 46.1 µM
[10]
  TGI: 73.1 µM

## C=C1CC[C@@H](C)[C@](C)(CCc2ccoc2)C/C=C\C=C/1C(=O)O
[1]
  TGI: > 100 µM
[2]
  TGI: > 100 µM
[3]
  TGI: > 100 µM
[4]
  TGI: > 100 µM
[7]
  TGI: 95.8 µM
[8]
  TGI: 43.8 µM
[11]
  TGI: 57 µM
[10]
  TGI: > 100 µM

## CN(C)CCNC(=O)c1cccc2c(NC(CCC(N)=O)C(=O)O)c3ccccc3nc12 (configuration not stated)
[2]
  TGI: 7.15 µM
[3]
  TGI: 47.8 µM
[4]
  TGI: 54.9 µM
[5]
  TGI: > 100 µM
[6]
  TGI: 28.3 µM
[7]
  TGI: 71.3 µM
[8]
  TGI: 25.4 µM
[11]
  TGI: 35.6 µM
[9]
  TGI: > 100 µM
[10]
  TGI: 15.5 µM

## C[N+](C)(C)c1ncnc2c1ncn2C1CCCO1 (configuration not stated)
[1]
  TGI: > 100 µM
[2]
  TGI: > 100 µM
[3]
  TGI: > 100 µM
[4]
  TGI: > 100 µM
[5]
  TGI: > 100 µM
[6]
  TGI: > 100 µM
[7]
  TGI: > 100 µM
[8]
  TGI: > 100 µM
[9]
  TGI: > 100 µM
[10]
  TGI: > 100 µM

## COC(=O)C(=O)Cc1nc2ccccc2o1
[2]
  TGI: > 100 µM
[3]
  TGI: > 100 µM
[4]
  TGI: > 100 µM
[6]
  TGI: > 100 µM
[7]
  TGI: > 100 µM
[8]
  TGI: > 100 µM
[11]
  TGI: > 100 µM
[10]
  TGI: > 100 µM

## Cn1c(=O)n2n(c1=O)C(C)(C13CC4CC(CC(C4)C1)C3)C13CC4CC(CC1C4)CC23 (configuration not stated)
[1]
  TGI: > 100 µM
[2]
  TGI: > 100 µM
[3]
  TGI: > 100 µM
[4]
  TGI: > 100 µM
[5]
  TGI: > 100 µM
[6]
  TGI: > 100 µM
[7]
  TGI: > 100 µM
[8]
  TGI: > 100 µM
[9]
  TGI: > 100 µM
[10]
  TGI: > 100 µM

## COc1ccc(C(=O)/C=C/c2ccc(OCC#N)cc2)cc1
[1]
  TGI: > 100 µM
[2]
  TGI: 30.6 µM
[3]
  TGI: > 100 µM
[4]
  TGI: > 100 µM
[5]
  TGI: 81.7 µM
[6]
  TGI: > 100 µM
[7]
  TGI: 77.1 µM
[10]
  TGI: > 100 µM

## COc1ccc(NC(=O)C(=O)/C=C(\O)c2ccccc2)cc1
[3]
  TGI: > 10 µM
[4]
  TGI: > 10 µM
[5]
  TGI: > 10 µM
[6]
  TGI: > 10 µM
[7]
  TGI: 4.18 µM
[11]
  TGI: 5.27 µM
[9]
  TGI: > 10 µM

## O=c1[nH]c(Nc2nc3ccccc3[nH]2)nc(O)c1Cc1ccccc1
[1]
  TGI: > 100 µM
[2]
  TGI: > 100 µM
[5]
  TGI: > 100 µM
[6]
  TGI: > 100 µM
[7]
  TGI: > 100 µM
[8]
  TGI: > 100 µM
[9]
  TGI: > 100 µM
[10]
  TGI: > 100 µM

## C=C(C)[C@@H]1CC[C@]2(C(=O)OC)CC[C@]3(C)[C@H](CC[C@@H]4[C@@]5(C)CC[C@H](O)C(C)(C)[C@@H]5CC[C@]43C)[C@@H]12
[1]
  TGI: 56.5 µM
[2]
  TGI: 49.1 µM
[3]
  TGI: 41.3 µM
[5]
  TGI: > 100 µM
[6]
  TGI: 67.3 µM
[7]
  TGI: 44.6 µM
[11]
  TGI: 34.6 µM
[10]
  TGI: 39.5 µM

## COc1ccc(Nc2ccc([N+](=O)[O-])cc2[N+](=O)[O-])cc1CN(CCCl)CCCl
[3]
  GI50: 2.97 µM
  TGI: 20.9 µM
[4]
  GI50: 3.85 µM
  TGI: > 100 µM
[5]
  GI50: 3.1 µM
  TGI: 10.5 µM
[6]
  GI50: 2.44 µM
  TGI: 16.8 µM
[7]
  GI50: 0.39 µM
  TGI: 9.94 µM
[8]
  GI50: 2.28 µM
  TGI: 5.66 µM
[11]
  GI50: 1.37 µM
  TGI: 3.51 µM
[9]
  GI50: 1.86 µM
  TGI: 9.75 µM
[10]
  GI50: 3.22 µM
  TGI: 25 µM
